Experimental data as given in BindingDB's records for doi:10.7270/Q21G0K51 (University of Carthage, 2017).

Key:
Acetylcholinesterase = Acetylcholinesterase (Electrophorus electricus, UniProt O42275); assay: Cholinesterase Activity Assay
Protocol: (§1) The eight synthesized dialkyl-3-cyanopropylphosphates (3a-h) were dissolved in0.01 M dimethyl sulphoxide and then diluted in demineralized water to 1 mM and 0.1 mM.

[1] = molecular target: Carboxylic ester hydrolase (Equus caballus, UniProt Q9N1N9); assay: Cholinesterase Activity Assay
Sequence of Carboxylic ester hydrolase (Q9N1N9 whole entry): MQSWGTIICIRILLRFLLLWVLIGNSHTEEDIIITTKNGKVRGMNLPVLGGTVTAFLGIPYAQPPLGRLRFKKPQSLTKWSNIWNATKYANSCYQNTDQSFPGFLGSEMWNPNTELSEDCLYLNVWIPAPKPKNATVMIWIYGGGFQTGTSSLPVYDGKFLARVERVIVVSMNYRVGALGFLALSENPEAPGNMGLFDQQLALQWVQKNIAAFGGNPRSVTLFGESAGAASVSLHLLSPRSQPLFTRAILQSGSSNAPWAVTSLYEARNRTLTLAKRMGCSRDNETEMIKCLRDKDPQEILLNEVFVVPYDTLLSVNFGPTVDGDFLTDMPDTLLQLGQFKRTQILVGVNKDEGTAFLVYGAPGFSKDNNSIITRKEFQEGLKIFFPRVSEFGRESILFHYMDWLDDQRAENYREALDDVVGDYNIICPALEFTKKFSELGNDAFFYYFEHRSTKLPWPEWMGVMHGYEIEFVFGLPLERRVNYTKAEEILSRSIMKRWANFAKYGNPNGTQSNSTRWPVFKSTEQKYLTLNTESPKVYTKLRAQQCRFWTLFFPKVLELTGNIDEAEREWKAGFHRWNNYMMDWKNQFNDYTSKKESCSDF
Protocol: as §1

Sequence of Acetylcholinesterase (O42275 whole entry): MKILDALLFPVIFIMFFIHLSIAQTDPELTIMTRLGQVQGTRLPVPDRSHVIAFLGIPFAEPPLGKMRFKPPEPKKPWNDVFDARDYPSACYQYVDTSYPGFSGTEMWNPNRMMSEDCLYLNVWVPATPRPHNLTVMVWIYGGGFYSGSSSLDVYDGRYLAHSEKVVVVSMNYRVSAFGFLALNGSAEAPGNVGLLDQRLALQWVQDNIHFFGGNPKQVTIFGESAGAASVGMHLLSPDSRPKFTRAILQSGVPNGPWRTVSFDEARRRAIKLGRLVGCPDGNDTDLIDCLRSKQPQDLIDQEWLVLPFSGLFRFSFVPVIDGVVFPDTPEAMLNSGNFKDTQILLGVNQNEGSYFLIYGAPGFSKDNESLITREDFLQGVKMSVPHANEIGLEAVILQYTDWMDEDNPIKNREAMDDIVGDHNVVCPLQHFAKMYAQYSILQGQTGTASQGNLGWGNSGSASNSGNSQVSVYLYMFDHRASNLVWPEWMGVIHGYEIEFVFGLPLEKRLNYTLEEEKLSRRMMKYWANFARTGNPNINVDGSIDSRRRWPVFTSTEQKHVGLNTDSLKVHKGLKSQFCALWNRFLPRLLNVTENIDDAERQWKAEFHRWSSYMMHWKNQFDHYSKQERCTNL

Structure (SMILES)	IC50 (Acetylcholinesterase) [µM]	IC50 [1] [µM]
CCOP(=O)(OCC)OC(CCC#N)c1ccc(OC)cc1 (stereo unspecified) [Diethyl-3-cyano-1-(4-methoxyphenyl)propylphosphate (3e)]	53.7	20.7
CCOP(=O)(OCC)OC(CCC#N)c1ccc(C)cc1 (stereo unspecified) [Diethyl-3-cyano-1-p-tolylpropylphosphate (3c)]	9.61	5.96
CCOP(=O)(OCC)OC(CCC#N)c1ccccc1 (stereo unspecified) [Diethyl-3-cyano-1-phenylpropylphosphate (3a)]	33.6	18.1
CCOP(=O)(OCC)OC(c1ccccc1)C(C)CC#N (stereo unspecified) [Diethyl-3-cyano-2-methyl-1-phenylpropylphosphate (3g)]	35.8	17.8
COc1ccc(C(CCC#N)OP(=O)(OC)OC)cc1 (stereo unspecified) [Dimethyl-3-cyano-1-(4-methoxyphenyl)propylphosphate (3f)]	36.8	23.3
COP(=O)(OC)OC(CCC#N)c1ccc(C)cc1 (stereo unspecified) [Dimethyl-3-cyano-1-p-tolylpropylphosphate (3d)]	17.3	16
COP(=O)(OC)OC(CCC#N)c1ccccc1 (stereo unspecified) [Dimethyl-3-cyano-1-phenylpropylphosphate (3b)]	31.4	19.3
COP(=O)(OC)OC(c1ccccc1)C(C)CC#N (stereo unspecified) [Dimethyl-3-cyano-2-methyl-1-phenylpropylphosphate (3h)]	29.5	20.6
